Laboratory results: patent US12617762B2, “Carboxy derivatives with antiinflamatory properties” (Sitryx Therapeutics Limited, priority 2019, dated 2026)

Experiments:
[1] = test system: IL-1β cytokine output from THP-1s; assay: THP-1 AlphaLISA IL-1β cytokine inhibition assay; assay type: cell-based; conditions: Homo sapiens, THP-1, differentiated THP-1 cells, LPS then nigericin
Experimental: Measuring Inhibitory Effects on IL-1β Cytokine Output from THP-1s
The cytokine inhibition profiles of compounds of formula (I) were determined in a differentiated THP-1 cell assay. All assays were performed in RPMI-1640 growth medium (Gibco), supplemented with 10% fetal bovine serum (FBS; Gibco), 1% penicillin-streptomycin and 1% sodium pyruvate unless specified otherwise. The IL-1β cytokine inhibition assay was run in a background of differentiated THP-1 cells as described below. All reagents described were from Sigma-Aldrich unless specified otherwise. Compounds were prepared as 10 mM DMSO stocks.
THP-1 cells were expanded as a suspension up to 80% confluence in appropriate growth medium. Cells were harvested, suspended, and treated with an appropriate concentration of phorbol 12-myristate 13-acetate (PMA) over a 72 hr period (37° C./5% CO2).
Following 72 hrs of THP-1 cell incubation, cellular medium was removed and replaced with fresh growth media containing 1% of FBS. Working concentrations of compounds were prepared separately in 10% FBS treated growth medium and pre-incubated with the cells for 30 minutes (37° C./5% CO2). Following the 30 minute compound pre-incubation, THP-1s were treated with an appropriate concentration of LPS and the cells were subsequently incubated for a 24 hr period (37° C./5% CO2). An appropriate final concentration of Nigericin was then dispensed into the THP-1 plates and incubated for 1 hour (37° C./5% CO2) before THP-1 supernatants were harvested and collected in separate polypropylene 96-well holding plates.
Reagents from an IL-1β and IL-6 commercial kit (Perkin Elmer) were prepared and run according to the manufacturer's instructions. Subsequently, fluorescence signal detection in a microplate reader was measured (EnVision® Multilabel Reader, Perkin Elmer).
Percentage inhibition was calculated per cytokine by normalising the sample data to the high and low controls used within each plate (+/− LPS respectively).

[2] = Hepatocyte stability assay, human; assay type: in vitro ADME; conditions: human, hepatocytes; for hepatocyte CLint at 10 μM: Hepatocyte stability Clint; for half-life at 10 μM: Hepatocyte stability T½
From the text: (§1) Defrosted cryo-preserved hepatocytes (viability >70%) were used to determine the metabolic stability of a compound via calculation of intrinsic clearance (CIint; a measure of the removal of a compound from the liver in the absence of blood flow and cell binding). Clearance data are particularly important for in vitro work as they can be used in combination with in vivo data to predict the half-life and oral bioavailability of a drug.
(§2) The metabolic stability in hepatocytes assay involves a time-dependent reaction using both positive and negative controls. The cells were pre-incubated at 37° C. then spiked with test compound (and positive control); samples were taken at pre-determined time intervals and were analysed to monitor the change in concentration of the initial drug compound over 60 minutes. A buffer incubation reaction (with no hepatocytes present) acted as a negative control and two cocktail solutions, containing compounds with known high and low clearance values (verapamil/7-hydroxycoumarin and propranolol/diltiazem), acted as positive controls. • 1. The assay was run with a cell concentration of 0.5×10^6 cells/mL in Leibovitz buffer. • 2. All compounds and controls were run in duplicate. • 3. Compound concentration was 10 μM. • 4. All compounds and controls were incubated with both cells and buffer to show turnover was due to hepatic metabolism. • 5. All wells on the incubation plate had 326.7 μL of either cells or buffer added. • 6. Prior to assay, cell and buffer-only incubation plates were preincubated for 10 mins at 37° C. • 7. The assay was initiated by adding compounds, 3.3 μL of 1 mM in 10% DMSO—90% Buffer; final DMSO concentration was 0.1%. • 8. Samples were taken at regular timepoints (0, 5, 10, 20, 40, 60 min) until 60 mins. • 9. Sample volume was 40 μL and was added to 160 μL of crash solvent (acetonitrile with internal standard) and stored on ice. • 10. At the end of the assay, the crash plates were centrifuged at 3500 rpm for 20 mins at 4° C. • 11. 80 μL of clear supernatant was removed and mixed with 80 μL of deionised water before being analysed by LC-MS/MS.
(§3) Raw LC-MS/MS data was exported to, and analysed in, Microsoft Excel for determination of intrinsic clearance. The percentage remaining of a compound was monitored using the peak area of the initial concentration as 100%. Intrinsic clearance and half-life values were calculated using a graph of the natural log of percentage remaining versus the time of reaction in minutes.

[3] = Hepatocyte stability assay, mouse; assay type: in vitro ADME; conditions: mouse, hepatocytes; for hepatocyte CLint at 10 μM: Hepatocyte stability Clint; for half-life at 10 μM: Hepatocyte stability T½
From the text: as §1, §2, §3

Row | Compound | IC50 [1] | hepatocyte CLint at 10 μM [2] | half-life at 10 μM [2] | hepatocyte CLint at 10 μM [3] | half-life at 10 μM [3]
1 | C=C(Cc1nc(C2(c3ccc(I)cc3)CC2)no1)C(=O)O [Example 117, 2-((3-(1-(4-iodophenyl)cyclopropyl)-1,2,4-oxadiazol-5-yl)methyl)acrylic acid] | 3.4 µM | 36 µL/min/1e6 cells | 43 min | 183 µL/min/1e6 cells | 7 min
2 | C=C(Cc1nc(C2(c3ccc(OC4CCC4)cc3)CC2)no1)C(=O)O [Example 111, 2-((3-(1-(4-cyclobutoxyphenyl)cyclopropyl)-1,2,4-oxadiazol-5-yl)methyl)acrylic acid] | 31.4 µM | 23 µL/min/1e6 cells | 71 min | 382 µL/min/1e6 cells | 3 min
3 | C=C(Cc1nc(C(F)(F)c2ccc(C)c(Cl)c2)no1)C(=O)O [Example 151, 2-((3-((3-chloro-4-methylphenyl)difluoromethyl)-1,2,4-oxadiazol-5-yl)methyl)acrylic acid] | 22.7 µM | 53 µL/min/1e6 cells | 23 min | 105 µL/min/1e6 cells | 19 min
4 | C=C(Cc1nc(-c2ccc(OCc3ccccc3)cc2)no1)C(=O)O [Example 100, 2-((3-(4-(benzyloxy)phenyl)-1,2,4-oxadiazol-5-yl)methyl)acrylic acid] | 25.8 µM | 77 µL/min/1e6 cells | 19 min | > 460 µL/min/1e6 cells | < 3 min
5 | C=C(Cc1nc(C2(c3ccc(Br)c(Cl)c3)CC2)no1)C(=O)O [Example 138, 2-((3-(1-(4-bromo-3-chlorophenyl)cyclopropyl)-1,2,4-oxadiazol-5-yl)methyl)acrylic acid] | 3 µM | 96 µL/min/1e6 cells | 15 min | > 460 µL/min/1e6 cells | < 3 min
6 | C=C(Cc1cnc(CCCCCCCC)cn1)C(=O)O [Example 113] | 20.1 µM | 290 µL/min/1e6 cells | 5 min | > 460 µL/min/1e6 cells | < 3 min
7 | C=C(Cc1noc(C(F)(F)c2ccc(C(F)(F)F)cc2)n1)C(=O)O [Example 97, 2-((5-(difluoro(4-(trifluoromethyl)phenyl)methyl)-1,2,4-oxadiazol-3-yl)methyl)acrylic acid] | 22.1 µM | 13 µL/min/1e6 cells | 125 min | 79 µL/min/1e6 cells | 15 min
8 | C=C(Cc1nc(-c2cccc(CCCC)c2)no1)C(=O)O [Example 27, 2-((3-(3-butylphenyl)-1,2,4-oxadiazol-5-yl)methyl)acrylic acid] | 29.6 µM | 156 µL/min/1e6 cells | 8 min | 281 µL/min/1e6 cells | 5 min
9 | C=C(Cc1nc(C2(c3ccc(C4CCC4)cc3)CC2)no1)C(=O)O [Example 131, 2-((3-(1-(4-cyclobutylphenyl)cyclopropyl)-1,2,4-oxadiazol-5-yl)methyl)acrylic acid] | 7.9 µM | 34 µL/min/1e6 cells | 43 min | 139 µL/min/1e6 cells | 11 min
10 | C=C(Cc1nc(C(F)(F)c2cc(Cl)c(F)c(Cl)c2)no1)C(=O)O [Example 153, 2-((3-((3,5-dichloro-4-fluorophenyl)difluoromethyl)-1,2,4-oxadiazol-5-yl)methyl)acrylic acid] | 17.3 µM | 23 µL/min/1e6 cells | 62 min | 44 µL/min/1e6 cells | 34 min
11 | C=C(Cc1nc(C(F)(F)c2ccc(I)cc2)no1)C(=O)O [Example 120, 2-((3-(difluoro(4-iodophenyl)methyl)-1,2,4-oxadiazol-5-yl)methyl)acrylic acid] | 3.6 µM | 10 µL/min/1e6 cells | 154 min | 66 µL/min/1e6 cells | 20 min
12 | C=C(Cc1nc(Cc2cc(Cl)c(F)c(Cl)c2)no1)C(=O)O [Example 134, 2-((3-(3,5-dichloro-4-fluorobenzyl)-1,2,4-oxadiazol-5-yl)methyl)acrylic acid] | 15.8 µM | 13 µL/min/1e6 cells | 112 min | 17 µL/min/1e6 cells | 75 min
13 | C=C(Cc1nc(-c2ccc(C(F)(F)CCC)cc2)no1)C(=O)O [Example 98, 2-((3-(4-(1,1-difluorobutyl)phenyl)-1,2,4-oxadiazol-5-yl)methyl)acrylic acid] | 37.2 µM | 70 µL/min/1e6 cells | 23 min | 208 µL/min/1e6 cells | 6 min
14 | C=C(Cc1nc(Cc2ccc(CCCC)cc2)co1)C(=O)O [Example 127, 2-((4-(4-butylbenzyl)oxazol-2-yl)methyl)acrylic acid] | 14.6 µM | 245 µL/min/1e6 cells | 6 min | 478 µL/min/1e6 cells | 3 min
15 | C=C(Cc1nc(Cc2ccc(C3(CCC)CC3)cc2)no1)C(=O)O [Example 147, 2-((3-(4-(1-propylcyclopropyl)benzyl)-1,2,4-oxadiazol-5-yl)methyl)acrylic acid] | 29.9 µM | 67 µL/min/1e6 cells | 22 min | > 460 µL/min/1e6 cells | < 3 min
16 | C=C(Cc1nc(CCCCCCCC)cs1)C(=O)O [Example 38, 2-((4-octylthiazol-2-yl)methyl)acrylic acid] | 7.8 µM | > 447 µL/min/1e6 cells | < 3 min | 204 µL/min/1e6 cells | 9 min
17 | C=C(Cc1nc(C2(c3ccc(C4CCCC4)cc3)CC2)no1)C(=O)O [Example 115] | 7.9 µM | 28 µL/min/1e6 cells | 55 min | 87 µL/min/1e6 cells | 15 min
18 | C=C(Cc1nc(C(F)(F)c2ccc(S(F)(F)(F)(F)F)cc2)no1)C(=O)O [Example 124, 2-((3-(difluoro(4-(pentafluoro-λ^6-sulfaneyl)phenyl)methyl)-1,2,4-oxadiazol-5-yl)methyl)acrylic acid] | 16.6 µM | 14 µL/min/1e6 cells | 105 min | 55 µL/min/1e6 cells | 27 min
19 | C=C(Cc1nc(Cc2ccc(C3CCC3)cc2)no1)C(=O)O [Example 128, 2-((3-(4-cyclobutylbenzyl)-1,2,4-oxadiazol-5-yl)methyl)acrylic acid] | 26.3 µM | 49 µL/min/1e6 cells | 30 min | 256 µL/min/1e6 cells | 6 min
